Columns and labels:
[1] = system: Receptor-type tyrosine-protein kinase FLT3 (Homo sapiens), P36888 [R834Q]; conditions: Compound concentration 1000.0 nM
[2] = target: Receptor-interacting serine/threonine-protein kinase 4 (Homo sapiens) (UniProt P57078); conditions: Compound concentration 1000.0 nM
[3] = target: Cyclin-dependent kinase 18 (Homo sapiens) (UniProt Q07002); conditions: Compound concentration 1000.0 nM
[4] = target: Serine/threonine-protein kinase Nek4 (Homo sapiens) (UniProt P51957); conditions: Compound concentration 1000.0 nM
[5] = target: Histamine H4 receptor (Homo sapiens) (UniProt Q9H3N8); conditions: Compound concentration 10.0 uM
Histamine H4 receptor (Homo sapiens), sequence (Q9H3N8 whole entry, canonical isoform): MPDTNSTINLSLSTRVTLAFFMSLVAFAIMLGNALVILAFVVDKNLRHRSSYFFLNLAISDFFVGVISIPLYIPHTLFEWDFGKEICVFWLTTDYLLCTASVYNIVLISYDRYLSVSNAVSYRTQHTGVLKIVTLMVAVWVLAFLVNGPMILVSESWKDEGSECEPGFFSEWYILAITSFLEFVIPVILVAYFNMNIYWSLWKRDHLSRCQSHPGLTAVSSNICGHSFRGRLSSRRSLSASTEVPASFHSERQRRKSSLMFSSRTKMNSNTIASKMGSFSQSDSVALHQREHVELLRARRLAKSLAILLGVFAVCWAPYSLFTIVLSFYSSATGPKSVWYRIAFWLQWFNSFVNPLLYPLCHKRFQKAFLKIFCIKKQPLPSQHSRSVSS

[6] = system: Phosphatidylinositol 4,5-bisphosphate 3-kinase catalytic subunit alpha isoform (Homo sapiens), P42336 [E545K]; conditions: Compound concentration 1000.0 nM
[7] = target: Ephrin type-A receptor 4 (Homo sapiens) (UniProt P54764); conditions: Compound concentration 1000.0 nM
[8] = target: Receptor tyrosine-protein kinase erbB-3 (Homo sapiens) (UniProt P21860); conditions: Compound concentration 1000.0 nM
[9] = target: Serine/threonine-protein kinase MAK (Homo sapiens) (UniProt P20794); conditions: Compound concentration 1000.0 nM
[10] = system: Tyrosine-protein kinase ABL1 (Homo sapiens), P00519 [Y253F]; conditions: Compound concentration 1000.0 nM
[11] = target: Casein kinase I isoform alpha (Homo sapiens) (UniProt P48729); conditions: Compound concentration 1000.0 nM
[12] = target: Ribosomal protein S6 kinase alpha-5 (Homo sapiens) (UniProt O75582); conditions: Compound concentration 1000.0 nM
[13] = target: Phosphatidylinositol 5-phosphate 4-kinase type-2 beta (Homo sapiens) (UniProt P78356); conditions: Compound concentration 1000.0 nM
[14] = target: NUAK family SNF1-like kinase 2 (Homo sapiens) (UniProt Q9H093); conditions: Compound concentration 1000.0 nM
[15] = target: Proto-oncogene tyrosine-protein kinase ROS (Homo sapiens) (UniProt P08922); conditions: Compound concentration 1000.0 nM
Proto-oncogene tyrosine-protein kinase ROS (Homo sapiens), sequence (P08922 whole entry): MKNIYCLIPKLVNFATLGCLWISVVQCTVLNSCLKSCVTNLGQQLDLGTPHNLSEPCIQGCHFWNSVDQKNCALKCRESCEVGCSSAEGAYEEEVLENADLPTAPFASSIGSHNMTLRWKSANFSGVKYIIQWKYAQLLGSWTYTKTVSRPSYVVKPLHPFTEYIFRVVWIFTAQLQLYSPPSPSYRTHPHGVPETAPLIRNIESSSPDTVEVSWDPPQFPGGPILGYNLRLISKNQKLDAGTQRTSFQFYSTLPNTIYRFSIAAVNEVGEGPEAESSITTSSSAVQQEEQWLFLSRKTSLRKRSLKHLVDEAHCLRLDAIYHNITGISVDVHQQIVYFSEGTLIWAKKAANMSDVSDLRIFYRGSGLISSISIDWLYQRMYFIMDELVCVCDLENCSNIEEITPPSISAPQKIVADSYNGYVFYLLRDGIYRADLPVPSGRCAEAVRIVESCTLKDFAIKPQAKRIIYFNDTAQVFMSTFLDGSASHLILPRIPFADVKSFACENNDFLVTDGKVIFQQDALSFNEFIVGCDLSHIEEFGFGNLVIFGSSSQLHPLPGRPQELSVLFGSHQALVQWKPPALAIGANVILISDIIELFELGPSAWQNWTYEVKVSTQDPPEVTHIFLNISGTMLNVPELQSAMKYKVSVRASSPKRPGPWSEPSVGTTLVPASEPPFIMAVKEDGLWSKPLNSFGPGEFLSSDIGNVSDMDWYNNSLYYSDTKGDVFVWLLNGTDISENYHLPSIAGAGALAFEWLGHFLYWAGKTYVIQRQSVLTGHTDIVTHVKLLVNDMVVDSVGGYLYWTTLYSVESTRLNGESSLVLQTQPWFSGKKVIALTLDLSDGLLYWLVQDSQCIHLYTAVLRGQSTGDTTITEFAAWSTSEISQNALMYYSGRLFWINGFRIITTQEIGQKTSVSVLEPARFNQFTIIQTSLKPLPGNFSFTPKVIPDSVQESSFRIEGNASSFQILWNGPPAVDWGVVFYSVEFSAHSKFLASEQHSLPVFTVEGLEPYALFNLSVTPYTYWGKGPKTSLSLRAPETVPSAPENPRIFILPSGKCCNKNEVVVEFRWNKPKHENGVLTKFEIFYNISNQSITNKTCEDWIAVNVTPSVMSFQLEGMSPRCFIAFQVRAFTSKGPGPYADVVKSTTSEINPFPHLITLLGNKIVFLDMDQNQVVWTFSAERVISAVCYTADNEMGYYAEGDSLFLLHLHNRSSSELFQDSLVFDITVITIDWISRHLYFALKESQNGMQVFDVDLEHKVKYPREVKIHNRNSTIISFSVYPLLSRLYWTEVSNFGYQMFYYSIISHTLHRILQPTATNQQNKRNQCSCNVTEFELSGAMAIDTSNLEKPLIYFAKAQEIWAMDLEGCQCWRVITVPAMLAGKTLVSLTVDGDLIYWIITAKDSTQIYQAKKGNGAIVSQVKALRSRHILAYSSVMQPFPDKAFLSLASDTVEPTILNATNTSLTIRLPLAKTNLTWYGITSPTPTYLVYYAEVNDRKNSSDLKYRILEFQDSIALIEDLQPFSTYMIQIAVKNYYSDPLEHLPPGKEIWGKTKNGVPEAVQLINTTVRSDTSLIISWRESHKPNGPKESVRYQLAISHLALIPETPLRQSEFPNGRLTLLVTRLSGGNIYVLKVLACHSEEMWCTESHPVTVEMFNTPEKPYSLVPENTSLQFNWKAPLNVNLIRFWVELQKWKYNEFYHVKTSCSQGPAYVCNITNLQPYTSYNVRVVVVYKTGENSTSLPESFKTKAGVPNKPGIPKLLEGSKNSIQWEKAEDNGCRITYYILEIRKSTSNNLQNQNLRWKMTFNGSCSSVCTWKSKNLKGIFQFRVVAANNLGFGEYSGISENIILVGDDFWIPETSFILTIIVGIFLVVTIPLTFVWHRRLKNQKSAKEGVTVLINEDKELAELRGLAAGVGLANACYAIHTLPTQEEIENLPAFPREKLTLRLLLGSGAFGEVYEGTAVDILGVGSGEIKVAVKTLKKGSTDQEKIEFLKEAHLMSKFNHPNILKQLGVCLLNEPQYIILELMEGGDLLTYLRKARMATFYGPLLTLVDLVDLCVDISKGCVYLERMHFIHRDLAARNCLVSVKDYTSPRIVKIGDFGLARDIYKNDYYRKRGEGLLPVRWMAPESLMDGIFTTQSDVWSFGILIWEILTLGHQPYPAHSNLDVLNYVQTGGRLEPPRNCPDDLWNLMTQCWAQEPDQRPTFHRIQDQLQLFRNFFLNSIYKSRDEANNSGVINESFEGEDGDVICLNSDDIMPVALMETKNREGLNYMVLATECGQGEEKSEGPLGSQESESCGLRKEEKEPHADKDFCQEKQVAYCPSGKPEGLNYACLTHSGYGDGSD

[16] = target: Myotonin-protein kinase (Homo sapiens) (UniProt Q09013); conditions: Compound concentration 1000.0 nM
Myotonin-protein kinase (Homo sapiens), sequence (Q09013 whole entry, canonical isoform): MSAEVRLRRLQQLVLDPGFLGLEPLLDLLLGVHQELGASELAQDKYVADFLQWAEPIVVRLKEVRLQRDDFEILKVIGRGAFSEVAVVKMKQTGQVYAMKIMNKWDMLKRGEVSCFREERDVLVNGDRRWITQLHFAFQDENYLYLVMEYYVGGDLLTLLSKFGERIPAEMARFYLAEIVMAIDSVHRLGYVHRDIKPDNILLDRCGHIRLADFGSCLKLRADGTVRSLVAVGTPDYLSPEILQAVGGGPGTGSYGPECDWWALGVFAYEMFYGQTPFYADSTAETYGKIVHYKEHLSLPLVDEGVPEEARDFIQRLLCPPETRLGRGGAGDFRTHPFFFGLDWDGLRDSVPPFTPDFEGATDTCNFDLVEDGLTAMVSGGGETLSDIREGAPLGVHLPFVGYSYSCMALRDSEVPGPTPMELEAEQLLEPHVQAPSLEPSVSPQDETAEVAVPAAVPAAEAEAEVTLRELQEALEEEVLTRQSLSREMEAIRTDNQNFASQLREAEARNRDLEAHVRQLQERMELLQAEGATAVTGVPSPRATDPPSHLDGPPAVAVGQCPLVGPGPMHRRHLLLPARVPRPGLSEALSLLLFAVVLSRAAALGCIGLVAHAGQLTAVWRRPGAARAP

[17] = target: Phosphorylase b kinase gamma catalytic chain, skeletal muscle/heart isoform (Homo sapiens) (UniProt Q16816); conditions: Compound concentration 1000.0 nM
[18] = target: Aurora kinase C (Homo sapiens) (UniProt Q9UQB9); conditions: Compound concentration 1000.0 nM
[19] = target: Bone morphogenetic protein receptor type-1A (Homo sapiens) (UniProt P36894); conditions: Compound concentration 1000.0 nM
Bone morphogenetic protein receptor type-1A (Homo sapiens), sequence (P36894 whole entry): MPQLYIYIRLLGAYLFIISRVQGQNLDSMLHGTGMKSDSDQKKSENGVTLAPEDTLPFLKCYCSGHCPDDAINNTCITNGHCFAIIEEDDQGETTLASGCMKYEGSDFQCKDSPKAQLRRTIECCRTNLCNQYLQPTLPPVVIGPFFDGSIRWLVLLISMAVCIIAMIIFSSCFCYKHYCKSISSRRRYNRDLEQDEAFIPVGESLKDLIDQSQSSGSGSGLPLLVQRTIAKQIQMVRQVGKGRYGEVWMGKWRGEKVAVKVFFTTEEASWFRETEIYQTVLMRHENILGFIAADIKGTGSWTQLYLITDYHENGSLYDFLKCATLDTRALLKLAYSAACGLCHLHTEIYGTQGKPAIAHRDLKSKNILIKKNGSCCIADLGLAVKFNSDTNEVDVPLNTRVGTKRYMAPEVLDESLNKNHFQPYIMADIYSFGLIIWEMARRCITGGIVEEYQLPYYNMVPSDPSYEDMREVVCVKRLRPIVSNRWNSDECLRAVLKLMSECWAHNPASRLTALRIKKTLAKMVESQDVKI

[20] = target: Phosphatidylinositol 4-phosphate 5-kinase type-1 gamma (Homo sapiens) (UniProt O60331); conditions: Compound concentration 1000.0 nM
[21] = target: Membrane-associated tyrosine- and threonine-specific cdc2-inhibitory kinase (Homo sapiens) (UniProt Q99640); conditions: Compound concentration 1000.0 nM
[22] = target: Kappa-type opioid receptor (Homo sapiens) (UniProt P41145); conditions: Compound concentration 10.0 uM
[23] = target: MAP/microtubule affinity-regulating kinase 3 (Homo sapiens) (UniProt P27448); conditions: Compound concentration 1000.0 nM
[24] = system: Tyrosine-protein kinase ABL1 (Homo sapiens), P00519 [T315I]; conditions: Compound concentration 1000.0 nM
[25] = target: Ribosomal protein S6 kinase alpha-3 (Homo sapiens) (UniProt P51812); conditions: Compound concentration 1000.0 nM
[26] = target: Protein-tyrosine kinase 2-beta (Homo sapiens) (UniProt Q14289); conditions: Compound concentration 1000.0 nM
[27] = target: Serine/threonine-protein kinase PAK 6 (Homo sapiens) (UniProt Q9NQU5); conditions: Compound concentration 1000.0 nM
Serine/threonine-protein kinase PAK 6 (Homo sapiens), sequence (Q9NQU5 whole entry, looked up): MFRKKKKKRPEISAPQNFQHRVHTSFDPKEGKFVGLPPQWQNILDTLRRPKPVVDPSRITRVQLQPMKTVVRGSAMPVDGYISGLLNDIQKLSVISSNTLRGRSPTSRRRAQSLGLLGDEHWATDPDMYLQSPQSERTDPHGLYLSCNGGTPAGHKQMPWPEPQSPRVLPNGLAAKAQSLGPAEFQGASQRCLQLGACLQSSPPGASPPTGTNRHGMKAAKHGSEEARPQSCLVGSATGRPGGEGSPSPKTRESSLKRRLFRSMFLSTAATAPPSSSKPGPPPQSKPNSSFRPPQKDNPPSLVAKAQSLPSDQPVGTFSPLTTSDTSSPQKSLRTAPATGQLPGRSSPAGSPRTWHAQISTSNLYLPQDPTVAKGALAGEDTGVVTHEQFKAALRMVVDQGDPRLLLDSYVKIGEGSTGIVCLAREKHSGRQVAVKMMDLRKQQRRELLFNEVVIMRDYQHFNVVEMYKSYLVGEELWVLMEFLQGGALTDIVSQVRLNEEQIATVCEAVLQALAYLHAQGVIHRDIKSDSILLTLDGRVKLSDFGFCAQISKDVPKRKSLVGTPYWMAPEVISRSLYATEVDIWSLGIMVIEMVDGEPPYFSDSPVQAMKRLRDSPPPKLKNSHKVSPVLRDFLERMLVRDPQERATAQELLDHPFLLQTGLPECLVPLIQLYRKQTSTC

[28] = system: Hepatocyte growth factor receptor (Homo sapiens), P08581 [M1250T]; conditions: Compound concentration 1000.0 nM
[29] = target: Serine/threonine-protein kinase PAK 5 (Homo sapiens) (UniProt Q9P286); conditions: Compound concentration 1000.0 nM
[30] = target: Tyrosine-protein kinase ABL2 (Homo sapiens) (UniProt P42684); conditions: Compound concentration 1000.0 nM
[31] = target: 1-phosphatidylinositol 3-phosphate 5-kinase (Homo sapiens) (UniProt Q9Y2I7); conditions: Compound concentration 1000.0 nM
[32] = target: Wee1-like protein kinase (Homo sapiens) (UniProt P30291); conditions: Compound concentration 1000.0 nM
[33] = target: RAC-alpha serine/threonine-protein kinase (Homo sapiens) (UniProt P31749); conditions: Compound concentration 1000.0 nM
[34] = target: cGMP-dependent protein kinase 1 (Homo sapiens) (UniProt Q13976); conditions: Compound concentration 1000.0 nM
[35] = target: Alpha-1B adrenergic receptor (Homo sapiens) (UniProt P35368); conditions: Compound concentration 10.0 uM
[36] = target: Mitogen-activated protein kinase kinase kinase kinase 1 (Homo sapiens) (UniProt Q92918); conditions: Compound concentration 1000.0 nM
[37] = system: Receptor-type tyrosine-protein kinase FLT3 (Homo sapiens), P36888 [D835H]; conditions: Compound concentration 1000.0 nM
[38] = target: Tyrosine-protein kinase Srms (Homo sapiens) (UniProt Q9H3Y6); conditions: Compound concentration 1000.0 nM
[39] = target: Death-associated protein kinase 3 (Homo sapiens) (UniProt O43293); conditions: Compound concentration 1000.0 nM
[40] = target: Microtubule-associated serine/threonine-protein kinase 1 (Homo sapiens) (UniProt Q9Y2H9); conditions: Compound concentration 1000.0 nM
[41] = target: Serine/threonine-protein kinase pim-3 (Homo sapiens) (UniProt Q86V86); conditions: Compound concentration 1000.0 nM
[42] = system: Tyrosine-protein kinase ABL1 (Homo sapiens), P00519 [F317L]; conditions: Compound concentration 1000.0 nM
[43] = target: Leukocyte tyrosine kinase receptor (Homo sapiens) (UniProt P29376); conditions: Compound concentration 1000.0 nM
[44] = system: Epidermal growth factor receptor (Homo sapiens), P00533 [UNDEFINED MUTATION]; conditions: Compound concentration 1000.0 nM
[45] = target: Hormonally up-regulated neu tumor-associated kinase (Homo sapiens) (UniProt P57058); conditions: Compound concentration 1000.0 nM

Cyclin-dependent kinase 18 (Homo sapiens), sequence (Q07002 whole entry): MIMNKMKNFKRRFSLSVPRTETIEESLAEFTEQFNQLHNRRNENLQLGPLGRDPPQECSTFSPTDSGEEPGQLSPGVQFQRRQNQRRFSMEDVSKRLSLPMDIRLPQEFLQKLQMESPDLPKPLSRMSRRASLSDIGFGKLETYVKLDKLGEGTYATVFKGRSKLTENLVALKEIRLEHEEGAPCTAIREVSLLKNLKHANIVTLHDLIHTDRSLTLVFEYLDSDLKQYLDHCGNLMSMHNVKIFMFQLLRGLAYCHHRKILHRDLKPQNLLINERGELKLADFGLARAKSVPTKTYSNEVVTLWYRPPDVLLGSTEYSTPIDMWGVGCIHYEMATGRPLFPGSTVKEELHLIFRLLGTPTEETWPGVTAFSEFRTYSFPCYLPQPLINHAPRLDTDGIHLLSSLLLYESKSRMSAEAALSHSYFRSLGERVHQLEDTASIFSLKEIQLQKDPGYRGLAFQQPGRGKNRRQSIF

N#Cc1ccc(Nc2ccc3[nH]c(=O)[nH]c3c2)c(Cl)c1
inactive: residual activity [1] 90% | residual activity [2] 89% | residual activity [3] 100% | residual activity [4] 100% | inhibition [5] 4.43% | residual activity [6] 79% | residual activity [7] 100% | residual activity [8] 97% | residual activity [9] 100% | residual activity [10] 87% | residual activity [11] 100% | residual activity [12] 100% | residual activity [13] 74% | residual activity [14] 100% | residual activity [15] 100% | residual activity [16] 81% | residual activity [17] 100% | residual activity [18] 100% | residual activity [19] 100% | residual activity [20] 67% | residual activity [21] 100% | inhibition [22] 8.98% | residual activity [23] 100% | residual activity [24] 90% | residual activity [25] 87% | residual activity [26] 100% | residual activity [27] 85% | residual activity [28] 100% | residual activity [29] 100% | residual activity [30] 93% | residual activity [31] 82% | residual activity [32] 87% | residual activity [33] 67% | residual activity [34] 80% | inhibition [35] 10% | residual activity [36] 100% | residual activity [37] 100% | residual activity [38] 100% | residual activity [39] 92% | residual activity [40] 100% | residual activity [41] 100% | residual activity [42] 100% | residual activity [43] 100% | residual activity [44] 100% | residual activity [45] 98%

O=C1CCc2cc(Nc3cc(OC4CCOCC4)c([N+](=O)[O-])cc3Cl)ccc2N1
inactive: residual activity [1] 87% | residual activity [2] 100% | residual activity [3] 100% | residual activity [4] 100% | inhibition [5] 11.6% | residual activity [6] 79% | residual activity [7] 84% | residual activity [8] 98% | residual activity [9] 100% | residual activity [10] 79% | residual activity [11] 100% | residual activity [12] 86% | residual activity [13] 100% | residual activity [14] 89% | residual activity [15] 100% | residual activity [16] 96% | residual activity [17] 100% | residual activity [18] 100% | residual activity [19] 97% | residual activity [20] 100% | residual activity [21] 79% | inhibition [22] 12.4% | residual activity [23] 100% | residual activity [24] 99% | residual activity [25] 100% | residual activity [26] 83% | residual activity [27] 86% | residual activity [28] 93% | residual activity [29] 100% | residual activity [30] 79% | residual activity [31] 83% | residual activity [32] 99% | residual activity [33] 98% | residual activity [34] 89% | inhibition [35] 17.2% | residual activity [36] 100% | residual activity [37] 99% | residual activity [38] 82% | residual activity [39] 91% | residual activity [40] 100% | residual activity [41] 100% | residual activity [42] 74% | residual activity [43] 100% | residual activity [44] 100% | residual activity [45] 93%

— ChEMBL document CHEMBL4507304, “Data for DCP probe TP-021” (2021)
